Converted amounts (≈) assume the structure as drawn. “And” between values parts separate entries of the source, which are not always exact repeats. Identical values can stand only once. Like-named read-outs stand apart in the source and are kept apart here.
Key:
[1] = system: Mycobacterium tuberculosis H37Rv; assay: Mycobacterium tuberculosis H37Rv Inhibition Assay (Whole Cell Assay); assay type: cell-based; settings: ATCC 25618 / H37Rv, H37Rv strain (ATCC25618), Middlebrook 7H9, six days at 37° C., resazurin fluorescence after 48 hours
[2] = molecular target: T1, Mycobacterium tuberculosis InhA (Mycobacterium tuberculosis, UniProt P9WGR1); assay: Mycobacterium tuberculosis InhA Inhibition Assay (Enzyme Assay); assay type: biochemical; settings: 5 nM InhA, 50 μM DDCoA, 50 μM NADH, PIPES buffer pH 6.8, initial velocities of NADH consumption
T1 construct: made in house; host or cells: E. coli
Description: Mycobacterium tuberculosis InhA Inhibition Assay (Enzyme Assay)
InhA is able to reduce 2-trans enoyl-CoA esters with concomitant oxidation of NADH to NAD^+. The assay format is based on the kinetic detection of NADH consumption.
Assay for InhA inhibition is carried out with mycobacterium recombinant protein expressed and purified form E. coli. Standard assay conditions for the determination of kinetic constants and inhibitors activity use 5 nM of InhA, 50 μM of Dodecenoyl-CoA synthesized and purified as described by Quernard et al (DDCoA) and 50 μM of NADH as substrates, and it is carried out in 30 mM PIPES buffer pH 6.8, containing 0.05% of BSA. […] Triclosan is used as positive control in every experiment. One μl of compounds is added to the wells containing 25 μl of the DDCoA+NADH mix, the reaction is started by adding 50 μl of the enzyme solution. Fluorescence from NADH is followed at room temperature during 20 minutes in a fluorescent plate reader (excitation at 340 nm; emission at 480 nm). IC50 values are determined using initial velocities of NADH consumption.
Quernard A, Sacchettini J C, Dessen A, et al. Enzymatic characterization of the target for isoniazid in Mycobacterium tuberculosis. Biochemistry 1995; 34:8235-41.

T1 sequence (P9WGR1 whole entry, looked up): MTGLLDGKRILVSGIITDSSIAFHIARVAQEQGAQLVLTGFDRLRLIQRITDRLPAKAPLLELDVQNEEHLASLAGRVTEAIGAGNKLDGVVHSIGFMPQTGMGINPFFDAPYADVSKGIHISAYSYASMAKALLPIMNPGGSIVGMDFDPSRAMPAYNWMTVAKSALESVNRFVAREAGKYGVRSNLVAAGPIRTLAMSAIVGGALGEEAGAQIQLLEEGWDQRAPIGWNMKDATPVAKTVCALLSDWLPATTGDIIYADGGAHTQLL

| Structure (SMILES) | MIC [1] [µM] | IC50 ([2]; read-out: IC50 value) [µM] | IC50 ([2]; IC50 value) |
| --- | --- | --- | --- |
| Cc1cc(C)n(C(C)c2nnc(Nc3ccn(Cc4c(F)cccc4Cl)n3)s2)n1 (racemic) [Example 28, N-{1-[(2-chloro-6-fluorophenyl)methyl]-1H-pyrazol-3-yl}-5-[1-(3,5-dimethyl-1H-pyrazol-1-yl)ethyl]-1,3,4-thiadiazol-2-amine] | ≤ 1 | < 0.116 | – |
| Cc1csc(C(C)(O)c2nnc(Nc3ccn(Cc4c(F)cccc4Cl)n3)s2)n1 (racemic) [Example 30, 1-[5-({1-[(2-chloro-6-fluorophenyl)methyl]-1H-pyrazol-3-yl}amino)-1,3,4-thiadiazol-2-yl]-1-(4-methyl-1,3-thiazol-2-yl)ethanol] | ≤ 1 | < 0.111 | – |
| Cc1ccn(C(C)c2nnc(Nc3ccn(Cc4c(F)cccc4Cl)n3)s2)n1 (racemic) [Example 38, N-{1-[(2-chloro-6-fluorophenyl)methyl]-1H-pyrazol-3-yl}-5-[1-(3-methyl-1H-pyrazol-1-yl)ethyl]-1,3,4-thiadiazol-2-amine] | ≤ 1 | < 0.12 | – |
| Cc1csc(C(C)(O)c2nnc(Nc3ccn(Cc4c(F)cccc4F)n3)s2)n1 (racemic) [Example 78, 1-[5-({1-[(2,6-difluorophenyl)methyl]-1H-pyrazol-3-yl}amino)-1,3,4-thiadiazol-2-yl]-1-(4-methyl-1,3-thiazol-2-yl)ethanol] | ≤ 1 | – | < 0.115 µM |
| Cc1ccn([C@H](C)c2nnc(Nc3ccn(Cc4c(F)cccc4Cl)n3)s2)n1 (single isomer, unassigned) [Example 66] | 1 to 4 (≈ 0.418 to 1.67 µg/mL) | < 0.12 | – |
| Cc1ccn([C@@H](C)c2nnc(Nc3ccn(Cc4c(F)cccc4Cl)n3)s2)n1 (single isomer, unassigned) [Example 67] | 1 to 4 (≈ 0.418 to 1.67 µg/mL) | < 0.12 | – |
| Cc1cc(C)n([C@H](C)c2nnc(Nc3ccn(Cc4c(F)cccc4Cl)n3)s2)n1 (single isomer, unassigned) [Example 68] | > 10 | < 0.116 | – |
| Cc1cc(C)n([C@@H](C)c2nnc(Nc3ccn(Cc4c(F)cccc4Cl)n3)s2)n1 (single isomer, unassigned) [Example 69] | 1 to 4 (≈ 0.432 to 1.73 µg/mL) | < 0.116 | – |
| Cc1csc([C@](C)(O)c2nnc(Nc3ccn(Cc4c(F)cccc4Cl)n3)s2)n1 (single isomer, unassigned) [Example 70] | ≤ 1 | < 0.111 | – |
| Cc1csc([C@@](C)(O)c2nnc(Nc3ccn(Cc4c(F)cccc4Cl)n3)s2)n1 (single isomer, unassigned) [Example 71] | 1 to 4 (≈ 0.451 to 1.8 µg/mL) | < 0.111 | – |
| Cc1csc([C@](C)(O)c2nnc(Nc3ccn(Cc4c(F)cccc4F)n3)s2)n1 (single isomer, unassigned) [Example 89] | – | – | 0.0046 µM and < 0.115 µM |
| Cc1csc([C@@](C)(O)c2nnc(Nc3ccn(Cc4c(F)cccc4F)n3)s2)n1 (single isomer, unassigned) [Example 90] | > 10 | – | 0.115 to 0.23 µM |
| Cc1cc(C)n(C(C)c2nnc(Nc3ccn(Cc4ccccc4C(F)(F)F)n3)s2)n1 (stereo not shown) [Example 1, 5-[1-(3,5-dimethyl-1H-pyrazol-1-yl)ethyl]-N-(1-{[2-(trifluoromethyl)phenyl]methyl}-1H-pyrazol-3-yl)-1,3,4-thiadiazol-2-amine] | 4 to 10 (≈ 1.79 to 4.47 µg/mL) | < 0.112 | – |
| Cc1cc(C)n(C(C)c2nnc(Nc3ccn(Cc4cc(Cl)ccc4Cl)n3)s2)n1 (stereo not shown) [Example 2, N-{1-[(2,5-dichlorophenyl)methyl]-1H-pyrazol-3-yl}-5-[1-(3,5-dimethyl-1H-pyrazol-1-yl)ethyl]-1,3,4-thiadiazol-2-amine] | > 10 | < 0.112 | – |
| Cc1cc(C)n(C(C)c2nnc(Nc3ccn(Cc4ccccc4Br)n3)s2)n1 (stereo not shown) [Example 3, N-{1-[(2-bromophenyl)methyl]-1H-pyrazol-3-yl}-5-[1-(3,5-dimethyl-1H-pyrazol-1-yl)ethyl]-1,3,4-thiadiazol-2-amine] | 1 to 4 (≈ 0.458 to 1.83 µg/mL) | < 0.109 | – |
| Cc1ccn(C(C)c2nnc(Nc3ccn(Cc4cc(Cl)ccc4Cl)n3)s2)n1 (stereo not shown) [Example 4, N-{1-[(2,5-dichlorophenyl)methyl]-1H-pyrazol-3-yl}-5-[1-(3-methyl-1H-pyrazol-1-yl)ethyl]-1,3,4-thiadiazol-2-amine] | 4 to 10 (≈ 1.74 to 4.34 µg/mL) | < 0.115 | – |
| Cc1ccn(C(C)c2nnc(Nc3ccn(Cc4ccccc4Br)n3)s2)n1 (stereo not shown) [Example 5, N-{1-[(2-bromophenyl)methyl]-1H-pyrazol-3-yl}-5-[1-(3-methyl-1H-pyrazol-1-yl)ethyl]-1,3,4-thiadiazol-2-amine] | 4 to 10 (≈ 1.78 to 4.44 µg/mL) | < 0.113 | – |
| Cc1cc(C)n(C(C)c2nnc(Nc3ccn(Cc4ccccc4F)n3)s2)n1 (stereo not shown) [Example 6, 5-[1-(3,5-dimethyl-1H-pyrazol-1-yl)ethyl]-N-{1-[(2-fluorophenyl)methyl]-1H-pyrazol-3-yl}-1,3,4-thiadiazol-2-amine] | 1 to 4 (≈ 0.397 to 1.59 µg/mL) | < 0.126 | – |
| Cc1cc(C)n(C(C)c2nnc(Nc3ccn(Cc4cccc(Cl)c4F)n3)s2)n1 (stereo not shown) [Example 7, N-{1-[(3-chloro-2-fluorophenyl)methyl]-1H-pyrazol-3-yl}-5-[1-(3,5-dimethyl-1H-pyrazol-1-yl)ethyl]-1,3,4-thiadiazol-2-amine] | ≤ 1 | < 0.116 | – |
| Cc1cc(C)n(C(C)c2nnc(Nc3ccn(Cc4cc(C(F)(F)F)ccc4C(F)(F)F)n3)s2)n1 (stereo not shown) [Example 8, N-(1-{[2,5-bis(trifluoromethyl)phenyl]methyl}-1H-pyrazol-3-yl)-5-[1-(3,5-dimethyl-1H-pyrazol-1-yl)ethyl]-1,3,4-thiadiazol-2-amine] | > 10 | < 0.097 | – |
| Cc1cc(C)n(C(C)c2nnc(Nc3ccn(Cc4cc(F)ccc4C(F)(F)F)n3)s2)n1 (stereo not shown) [Example 9, 5-[1-(3,5-dimethyl-1H-pyrazol-1-yl)ethyl]-N-(1-{[5-fluoro-2-(trifluoromethyl)phenyl]methyl}-1H-pyrazol-3-yl)-1,3,4-thiadiazol-2-amine] | > 10 | < 0.107 | – |
| Cc1cc(C)n(C(C)c2nnc(Nc3ccn(Cc4cccc(F)c4F)n3)s2)n1 (stereo not shown) [Example 10, N-{1-[(2,3-difluorophenyl)methyl]-1H-pyrazol-3-yl}-5-[1-(3,5-dimethyl-1H-pyrazol-1-yl)ethyl]-1,3,4-thiadiazol-2-amine] | ≤ 1 | < 0.12 | – |
| Cc1cc(C)n(C(C)c2nnc(Nc3ccn(Cc4cc(C(F)(F)F)ccc4Cl)n3)s2)n1 (stereo not shown) [Example 11, N-(1-{[2-chloro-5-(trifluoromethyl)phenyl]methyl}-1H-pyrazol-3-yl)-5-[1-(3,5-dimethyl-1H-pyrazol-1-yl)ethyl]-1,3,4-thiadiazol-2-amine] | > 10 | < 0.104 | – |
| Cc1cc(C)n(C(C)c2nnc(Nc3ccn(Cc4c(F)cccc4F)n3)s2)n1 (stereo not shown) [Example 12, N-{1-[(2,6-difluorophenyl)methyl]-1H-pyrazol-3-yl}-5-[1-(3,5-dimethyl-1H-pyrazol-1-yl)ethyl]-1,3,4-thiadiazol-2-amine] | ≤ 1 | < 0.12 | – |
| Cc1cc([N+](=O)[O-])nn1Cc1nnc(Nc2ccn(Cc3c(Cl)cccc3Cl)n2)s1 [Example 65, N-{1-[(2,6-dichlorophenyl)methyl]-1H-pyrazol-3-yl}-5-[1-(5-methyl-3-nitro-1H-pyrazol-1-yl)methyl]-1,3,4-thiadiazol-2-amine] | – | > 1.07 | – |
| Cc1csc(C(C)(O)c2nnc(Nc3ccn(Cc4cccc(N)c4F)n3)s2)n1 (stereo not shown) [Example 88, 1-[5-({1-[(3-amino-2-fluorophenyl)methyl]-1H-pyrazol-3-yl}amino)-1,3,4-thiadiazol-2-yl]-1-(4-methyl-1,3-thiazol-2-yl)ethanol] | – | < 0.116 | – |
